This is an account of results in paper PMC5991393, “Pharmacokinetic properties of a novel inosine analog, 4′-cyano-2′-deoxyinosine, after oral administration in rats” (PLoS ONE, 2018).

The target of data set [1] is T1, Human serum albumin (HSA) (Homo sapiens, UniProt P02768).
T1 construct: purchased Sigma-Aldrich (Tokyo, Japan)
Kind of data set: Protein binding by ultrafiltration, HSA. Type of data set: in vitro ADME. The following applies: 600 μM HSA, 500 ng/mL. The procedure: (§1) Protein binding assays were performed following a previous reported procedure, with minor modifications. In short, pooled human plasma, 600 μM HSA and 45 μM AGP were spiked with an aqueous solution of SK14-061a to produce a final SK14-061a concentration of 500 ng/mL, respectively. The unbound drug fraction was determined by ultrafiltration. Ultrafiltration was carried out using an Amicon® Ultra-0.5 mL centrifugal filter unit with an Ultracel®-30 membrane (Merck Millipore Company, MA). Samples of 500 μL were centrifuged at 14,000 g for 10 min. The SK14-061a concentration were determined by LC-MS without the SPE method.

In another data set the test system is HIV-1MDR. On the set-up: method as in PMID 15200030. The following applies: clone with Ala62Val, Val75Leu, Phe77Leu, Phe116Tyr, Gln115Met; cited from earlier work.
For data set [2], the system named is human α1-acid glycoprotein (AGP). Kind of data set: Protein binding by ultrafiltration, AGP. Type of data set: in vitro ADME. The following applies: 45 μM AGP, 500 ng/mL. The procedure: as §1
The test system of the next data set is HIV-1M184V. On the set-up: method as in PMID 15200030. The following applies: lamivudine-resistant; cited from earlier work.
Data set [3] can be described thus: Urinary excretion of unchanged SK14-061a after oral administration. In kind it is in vivo, rats. As to the method: Rats were fasted for 12 h but with free access to water before dosing. Rats were orally (p.o.) administered a SK14-061a solution at a dose of 1 mg/kg. At stipulated times after the administration (15 min, 45 min, 90 min, 3, 4.5, 6 and 9 hr), venous blood samples were collected from tail vein using a heparinized syringe (0.25ml). The blood samples were centrifuged (3,000 rpm, 10 min) to obtain plasma. […] After obtaining the last blood sample, all rats were sacrificed and kidneys and liver collected. To determine the time-dependent tissue distribution of SK14-061a, rats were sacrificed and organs (kidneys and liver) were collected at 1 and 3 hr after the oral administration of SK14-061a at a dose of 1 mg/kg. To calculate bioavailability, plasma concentrations of SK14-061a after intravenous administration (1 mg/kg) were also obtained at 3 min, 15 min, 30 min, 1, 3, 6 and 9 hr. Before the LC-MS analysis, plasma samples that were collected for pharmacokinetic studies were treated in the same manner as described in the "Validation assays" section. A portion of the liver and kidney tissues (about 500 mg) were homogenized in water (1 mL). The homogenized samples were subsequently ultracentrifuged at 100,000 g for 1 hr, and the supernatant collected. Urine samples were centrifuged (3,000 rpm, 10 min) and the supernatants were used in the analyses. All samples derived from organs and urine were processed using a Waters Oasis MCX 96 well plate in the same manner as was used for the plasma samples before the LC-MS analysis.

Data set [4] is described as follows: Tissue distribution to liver and kidney after oral administration. In kind it is in vivo. The following applies: rats, p.o., 1 mg/kg. The procedure:
Rats were fasted for 12 h but with free access to water before dosing. Rats were orally (p.o.) administered a SK14-061a solution at a dose of 1 mg/kg. At stipulated times after the administration (15 min, 45 min, 90 min, 3, 4.5, 6 and 9 hr), venous blood samples were collected from tail vein using a heparinized syringe (0.25ml). The blood samples were centrifuged (3,000 rpm, 10 min) to obtain plasma. Urine samples were collected in a metabolic cage for 9 hr after the administration of the SK14-061a solution. After obtaining the last blood sample, all rats were sacrificed and kidneys and liver collected. To determine the time-dependent tissue distribution of SK14-061a, rats were sacrificed and organs (kidneys and liver) were collected at 1 and 3 hr after the oral administration of SK14-061a at a dose of 1 mg/kg. To calculate bioavailability, plasma concentrations of SK14-061a after intravenous administration (1 mg/kg) were also obtained at 3 min, 15 min, 30 min, 1, 3, 6 and 9 hr. Before the LC-MS analysis, plasma samples that were collected for pharmacokinetic studies were treated in the same manner as described in the "Validation assays" section. A portion of the liver and kidney tissues (about 500 mg) were homogenized in water (1 mL). The homogenized samples were subsequently ultracentrifuged at 100,000 g for 1 hr, and the supernatant collected. Urine samples were centrifuged (3,000 rpm, 10 min) and the supernatants were used in the analyses. All samples derived from organs and urine were processed using a Waters Oasis MCX 96 well plate in the same manner as was used for the plasma samples before the LC-MS analysis.

Data set [5] is described as follows: Metabolism assay in vitro with rat liver microsomes. Type of data set: in vitro ADME. The following applies: 100 ng/ml, 0.2 mg/ml rat liver microsomal protein, 60 min, 37°C. The procedure:
SK14-061a (100 ng/ml) was incubated with the incubation mixtures (0.1 M potassium phosphate buffer (pH 7.4), 10 mM MgCl2, 1 mM EDTA, 1 mM NADP+, 10 mM glucose-6-phosphate, 10 units/ml glucose-6-phosphate dehydrogenase, and 0.2 mg/ml of rat liver microsomal protein). After a 5 min pre-incubation of the incubation mixture at 37°C, the metabolic reactions were initiated by the addition of SK14-061a. After 60 min, the SK14-061a was extracted from the incubation samples using the SPE method, and the SK14-061a concentration determined by LC-MS.
In general terms: Liver microsomes are vesicles of endoplasmic reticulum, rich in cytochrome P450 enzymes.

Data set [6] can be described thus: Pharmacokinetic study of oral co-administration of SK14-061a and ETV in rats. Type of data set: in vivo. The following applies: rat, plasma, po, 1 mg/kg. The procedure: At stipulated times after the administration (15 min, 45 min, 90 min, 3, 6 and 9 hr), venous blood samples were collected by means of a heparinized syringe (0.25ml). The blood samples were centrifuged (3,000 rpm, 10 min) to obtain plasma. […] All data are expressed as the mean ± S.D. Statistical analyses for multiple comparisons were determined by an analysis of variance (two-way ANOVA) using the Bonferroni correction for multiple comparisons. A probability value of p < 0.05 was considered to be significant. A non-compartment model was used for the pharmacokinetic analysis. Parameters were calculated using the program of a moment analysis developed by Tabata et al. Half-life (t1/2) were calculated from the elimination phase. Area under the concentration-time curve (AUC) were calculated using the following equations: AUC=∫0∞Cdt

Data set [7] in a line: Protein binding by ultrafiltration, pooled human plasma. Type of data set: in vitro ADME. The following applies: read-out: protein binding rate in human pooled plasma (converted). The procedure:
as §1

Setting [8] is: rats, p.o., 1 mg/kg, 9 hr after oral administration.

One may read the half-life as how long it takes for the measured level to halve. One may read the AUC as concentration integrated over time. As a reminder, the Cmax is the peak of the concentration-time curve. In general, MRT refers to a mean duration of stay, worked out from the concentration-time curve. What is called Tmax is the time at which the peak concentration occurs.

Molecules are shown by their SMILES. Entries after “also recorded” stand apart in the source; their conditions may differ.

T1 sequence (P02768 25-609): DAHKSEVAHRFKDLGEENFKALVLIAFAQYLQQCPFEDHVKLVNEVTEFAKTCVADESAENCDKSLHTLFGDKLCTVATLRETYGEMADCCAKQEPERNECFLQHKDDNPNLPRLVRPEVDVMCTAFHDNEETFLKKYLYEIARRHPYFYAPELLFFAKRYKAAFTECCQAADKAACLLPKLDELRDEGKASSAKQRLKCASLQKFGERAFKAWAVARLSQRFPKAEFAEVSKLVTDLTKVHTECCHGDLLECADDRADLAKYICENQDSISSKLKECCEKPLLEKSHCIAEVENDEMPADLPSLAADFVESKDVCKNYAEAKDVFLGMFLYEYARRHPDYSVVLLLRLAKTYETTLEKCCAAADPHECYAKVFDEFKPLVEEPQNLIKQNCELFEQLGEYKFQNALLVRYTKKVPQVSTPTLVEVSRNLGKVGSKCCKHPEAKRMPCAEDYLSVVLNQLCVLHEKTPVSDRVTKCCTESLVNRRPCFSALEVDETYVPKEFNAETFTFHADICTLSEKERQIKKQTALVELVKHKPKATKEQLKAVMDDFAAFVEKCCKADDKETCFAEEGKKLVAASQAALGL

With `N#C[C@]1(CO)O[C@@H](n2cnc3c(O)ncnc32)C[C@@H]1O` [SK14-061a, 4′-cyano-2′-deoxyinosine], the “binding rate to HSA” value in data set [1] is given as “about 14.7 ± 0.03%”. For the same molecule, the “activity against HIV-1MDR” value with HIV-1MDR was “potent activity”. Further, in data set [2], the “binding rate to AGP” value is listed as “about 22.1 ± 0.01%”. Moreover, the “activity against HIV-1M184V” value in the data set with HIV-1M184V is recorded as “potent activity; also recorded: highly active”. Besides, the “SK14-061a accumulated in the urine as share of the administered dose” value in data set [3] (during 72 hr after oral administration, authors' other study) is “about 45%”. For the same molecule, in data set [3] (rat, urine, po, rats, p.o., 1 mg/kg, 9 hr, taken together with bioavailability (approximately 65%), read-out: recovery of SK14-061a in urine taking bioavailability into account), the dose excreted was approximately 30%. Further, in data set [3] (setting [8]), the “amount of unchanged SK14-061a accumulated in the urine” value is “about 46 ± 17 μg” and the “unchanged SK14-061a in urine as share of the administered dose” value was “about 20%”. Moreover, in data set [4], the “distribution to liver compared with kidney” value is recorded as “distributed at higher levels to the liver than the kidney”. Further, in [4] (sampled at 1, 3 and 9 hr), the “time of maximum distribution in the kidney” value stood at 1 h and the “time of maximum distribution in the liver” value came out at 1 h. The “non-metabolized form detected after incubation with rat microsomes” value in data set [5] was 73.7 ± 10.7%. Also, the half-life in data set [6] was 4.07 ± 2.2 h. The AUC in data set [6] (read-out: AUC) is 972 ± 185 ng·h/mL. Besides, in [6] (read-out: CL/F (converted)), the CL/F was 17.7 mL/min/kg. Further, in data set [6] (read-out: Cmax), the maximum concentration (Cmax) was 165 ± 46.6 ng/mL. Further, in data set [6] (read-out: MRT), the mean residence time MRT came out at 3.14 ± 2.16 h. Besides, in [6] (read-out: tmax), the Tmax amounted to 1.07 ± 0.4 h. For the same molecule, the fraction unbound at 500 ng/mL in data set [7] was approximately 0.363.
